Test results from BigSolDB 2.1.

NC(N)=NCCC[C@H](NC(=O)OCc1ccccc1)C(=O)O
solubility (mole fraction)
Details	283.15 K	288.15 K	293.15 K	298.15 K	303.15 K	313.15 K	323.15 K
in 2-butanone	9.88e-05	–	0.000118	–	0.000136	0.000164	0.000196
in DMF	0.00164	–	0.00346	–	0.00597	0.00993	0.0183
in acetone	2.5e-05	–	4.7e-05	–	5.73e-05	6.89e-05	9.91e-05
in acetonitrile	1.5e-05	–	2.71e-05	–	3.52e-05	4.03e-05	4.82e-05
in dichloromethane	8.03e-05	0.000103	0.000144	0.000183	0.000233	–	–
in ethanol	0.000193	–	0.000255	–	0.000379	0.000558	0.000898
in ethyl acetate	4.73e-05	–	6.24e-05	–	7.31e-05	8.72e-05	9.78e-05
in isopropanol	7.15e-05	–	0.000127	–	0.000163	0.000223	0.000275
in methanol	0.000468	–	0.000602	–	0.00107	0.00137	0.00207
in n-butanol	6.05e-05	–	0.000103	–	0.000141	0.000178	0.000239
in n-hexane	4.3e-05	–	5.7e-05	–	7.42e-05	8.12e-05	0.000119
in water	0.000198	–	0.000307	–	0.000417	0.000663	0.00104
